pEC50: −log10 of the molar value.
Assays:
[1] = tested on: ventral cerebrum markers NKX2.1 and MASH1 in cerebral organoid; test: Expression of ventral cerebrum markers in cerebral organoids, quantitative PCR; assay type: cell-based, human
Description: (§1) The cell line iPSC 409B2 (Cell no. HPS0076) was obtained from National University Corporation Kyoto University through RIKEN BioResource Center Cell Bank. In order to maintain the undifferentiated state, the iPS cells were cultured in an Essential 8 medium on a dish coated with vitronectin (VNT-N, Thermofisher Scientific).
(§2) A cerebral organoid was prepared according to the method described in Lancaster et al., Nat Protoc. 9: 2329-2340, 2014. Using TrypLE™ (Thermofisher Scientific), hiPSCs cultured in an E8 medium were separated into single cells, which were then reaggregated to a cell mass having a density of approximately 10,000 cells, using a […] E6 medium, in a low-adhesion 96-well round bottom plate.
(§3) To the E6 medium, FGF2 (5 ng/mL, 0 to 4 days after initiation of the culture) and a ROCK inhibitor (Thiazovivine, 1μM, 0 to 4 days after initiation of the culture) were added. The medium was exchanged with a fresh one at 2 and 4 days after initiation of the culture. At 6 days after initiation of the culture, the medium was exchanged with a neural differentiation medium (DMEM/F12, 1% N2 supplement, insulin, 1% GlutaMax supplement, 1% NEAA, 1% penicillin-streptomycin, and 1 μg/mL heparin) containing SAG, caged SAG (photoresponsive protective group-binding SAG), or caged SAG before or after UV irradiation. When caged SAG was added, the culture was irradiated with a light for 15 minutes, using a halogen lamp. At 6, 8, and 10 days after initiation of the culture, the medium was exchanged with a fresh one.
Three types of organoids cultured under individual conditions were recovered at 11 days after initiation of the culture, and were then subjected to qPCR. Each organoid was embedded in a Matrigel droplet (25 μl), and was then transferred on a 60-mm dish containing a brain differentiation medium (DMEM/F12 : Neurobasal™ media=1:1, which was supplemented with a 0.5% N2 supplement, a 1% GlutaMax supplement, 0.5% NEAA, 1% penicillin-streptomycin, insulin, and a 1% B27 supplement (not containing vitamin A)). At 15 days after initiation of the culture, the medium was exchanged with a brain differentiation medium supplemented with a vitamin A-containing B27 supplement, and was then transferred into an Orbital Shaker. Thereafter, the medium was exchanged with a fresh one, every 4 or 5 days, until 30 days after initiation of the culture.
(§4) Total RNA was extracted using TriPure Isolation Reagent kit (Roche Diagnosis). cDNA was synthesized using SuperScript (registered trademark) IV Reverse Transcriptase (Invitrogen). Quantitative PCR was carried out using KAPA SYBR Fast qPCR kit (KAPA Biosystems). The data were standardized with respect to the expression level of GAPDH.

[2] = tested on: hedgehog signal downstream gene Gli in NIH-3T3 cells; test: Hedgehog signal assay in NIH-3T3 cells (Gli expression, quantitative PCR); assay type: cell-based
Description: (§5) NIH-3T3 cells were allowed to grow in DMEM (supplemented with 10% FBS, glutamine, penicillin, and streptomycin). In order to perform a hedgehog signal assay, the cells that had been cultured to reach confluent were cultured in a starvation-induced medium (DMEM; serum not added) overnight, so that the cells were in a starved state. Subsequently, the medium was exchanged with a starvation-induced medium supplemented with SAG, caged SAG, SANT75, caged SANT75, or the like. Using a halogen lamp, the cells were irradiated with a light for 15 minutes. Thereafter, total RNA was extracted from the NIH-3T3 cells cultured for 6 hours, and was then subjected to real-time PCR.
as §4

[3] = Photolysis kinetic analysis of caged SAG using HPLC (365 nm light); assay type: physicochemical; settings: 100 μM caged SAG in PBS:DMSO=9:1, light at 365 nm, 0 to 8 J/cm^2, HPLC
Description: 100 μM Caged SAG (PBS:DMSO=9:1) was irradiated with a light at a wavelength of 365 nm at an energy intensity of 0 to 8 J/cm^2. Each sample was analyzed according to HPLC (5-C18-AR-II column, at 0 min, CH3CN:H2O=5:95, at 8 min, 30:70, and then at 15 min, 0:100). Each fraction obtained by HPLC was recovered, and was then analyzed according to ESI spectrometry.

[4] = tested on: ventral cerebrum markers NKX2.1 and MASH1 in cerebral organoid; test: Immunohistostaining of cerebral organoids with anti-NKX2.1 and anti-MASH1 antibody; assay type: cell-based, human
Description: as §1, §2, §3
Three types of organoids cultured under individual conditions were recovered at 11 days after initiation of the culture, and were then subjected to qPCR. […]
Thereafter, the organoid was cut into a frozen section with a size of […] and was recovered on a slide glass. […] A fluorescent image was obtained using an inverted fluorescence microscope equipped with a CMOS camera (Zyla4.2, Andor).

Smoothened = Smoothened (Mus musculus, UniProt P56726); settings: previously reported, Chen et al., Proc. Natl. Acad Sci, 99: 14071-14076, 2002; cited from earlier work
Smoothened, sequence (P56726 33-793): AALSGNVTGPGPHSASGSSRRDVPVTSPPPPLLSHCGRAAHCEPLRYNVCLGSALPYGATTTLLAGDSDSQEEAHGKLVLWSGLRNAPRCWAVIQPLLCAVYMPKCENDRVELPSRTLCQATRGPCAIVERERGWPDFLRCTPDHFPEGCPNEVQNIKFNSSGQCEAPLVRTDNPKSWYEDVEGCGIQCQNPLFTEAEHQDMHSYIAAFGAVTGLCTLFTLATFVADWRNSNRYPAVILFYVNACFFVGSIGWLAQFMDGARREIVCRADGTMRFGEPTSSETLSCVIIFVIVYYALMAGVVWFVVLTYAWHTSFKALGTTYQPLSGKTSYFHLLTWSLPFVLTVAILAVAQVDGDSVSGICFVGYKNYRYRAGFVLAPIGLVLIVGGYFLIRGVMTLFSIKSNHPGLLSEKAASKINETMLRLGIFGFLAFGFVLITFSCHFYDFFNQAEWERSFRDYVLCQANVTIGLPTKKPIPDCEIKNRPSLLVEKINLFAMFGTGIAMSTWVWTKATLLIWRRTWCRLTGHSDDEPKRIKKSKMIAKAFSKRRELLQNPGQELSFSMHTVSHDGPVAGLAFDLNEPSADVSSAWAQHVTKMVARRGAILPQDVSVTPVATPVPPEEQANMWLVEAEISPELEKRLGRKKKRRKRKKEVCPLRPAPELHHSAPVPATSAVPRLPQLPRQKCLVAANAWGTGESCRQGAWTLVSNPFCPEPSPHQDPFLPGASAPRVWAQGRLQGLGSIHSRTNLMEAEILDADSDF

[5] = tested on: hedgehog signals (Glil expression); test: Inhibition of SAG-induced hedgehog signals (Glil expression) by antagonist; assay type: cell-based; settings: SAG 100 nM and SANT75 1 μM simultaneously
Description: as §5, §4

SMILES: COc1cc(C(C)OC(=O)N(C)C2CCC(N(Cc3cccc(-c4ccncc4)c3)C(=O)c3sc4ccccc4c3Cl)CC2)c([N+](=O)[O-])cc1OCCCC(=O)O (centres unmarked) [caged SAG]
- Smo agonistic activity ([1]; as a result of light irradiation): the same level of Smo agonistic activity as that of SAG
- expression levels of NKX2.1 and MASH1 ([1]; caged SAG after completion of light irradiation, 100 nM, quantitative PCR): increased
- expression of the ventral cerebrum markers (NKX2.1 and MASH1) ([1]; caged SAG before light irradiation, 100 nM, quantitative PCR): not induced
- activity of caged SAG ([1]; photodissociable protective group bound, without light irradiation): suppressed
- expression level of Gli ([2]; 100 nM caged SAG, cells irradiated with a light): increased
- expression of Gli ([2]; 100 nM caged SAG, cells not irradiated with a light): could not be confirmed
- activation (expression level of Gli) ([2]; caged SAG at 1 nM, with light irradiation): only a little activation
- activation (expression level of Gli) ([2]; caged SAG at 10 nM, with light irradiation): activation was observed
- energy intensity at which photolysis was almost completed [3]: 2-4 J/cn^2
- expression levels of NKX2.1 and MASH1 ([4]; caged SAG after completion of light irradiation (100 nM)): increased
- expression levels of NKX2.1 and MASH1 ([4]; cerebral organoid cultured in the presence of caged SAG irradiated with a light): increased

SMILES: CNC1CCC(N(Cc2cccc(-c3ccncc3)c2)C(=O)c2sc3ccccc3c2Cl)CC1 (centres unmarked) [SAG, reference compound]
- activation (expression level of Gli) ([2]; SAG at 1 nM): only a little activation
- activation (expression level of Gli) ([2]; SAG at 10 nM): activation was observed
- expression level of Gli ([2]; cells cultured in the presence of SAG): increased
- expression levels of NKX2.1 and MASH1 ([4]; cultured in the presence of SAG (SAG(+))): increased
- pEC50 (Smoothened): 8.52

SMILES: CCCNC1CCC(N(Cc2cccc(-c3ccncc3)c2)C(=O)c2sc3ccccc3c2Cl)CC1 (centres unmarked) [SANT75]
- inhibition of hedgehog signals (expression level of Glil) [5]: competitive inhibition

Source: patent US20200397901A1, “PHOTORESPONSIVE SMOOTHENED LIGAND” (The University of Tokyo, priority 2018, published 2020)
